Laboratory results reported in ChEMBL document CHEMBL1139531, “Synthesis and biological evaluation of dihydromotuporamine derivatives in cells containing active polyamine transporters” (J Med Chem, 2005).

Key:
[1] = test system: CHO-MG; experiment: Relative inhibition of CHO-MG and chinese hamster ovary cell proliferation; type: functional
[2] = test system: CHO-MG; experiment: Inhibition of MGBG-resistant CHO-MG cell proliferation, no polyamine transporter activity; type: functional, cell-based; conditions: Cricetulus griseus
[3] = test system: CHO; experiment: Inhibition of chinese hamster ovary cell proliferation, high polyamine transporter activity; type: functional, cell-based; conditions: Cricetulus griseus
[4] = test system: L1210; experiment: Inhibition of murine L1210 leukemia cell proliferation, high polyamine transporter activity; type: functional, cell-based; conditions: Mus musculus
[5] = test system: L1210; experiment: Affinity for cellular polyamine transporter system as inhibition [14C]spermidine uptake in L1210 cells; type: functional, cell-based, Mus musculus

Structure (SMILES) | Ratio [1] | IC50 [2] [µM] | IC50 [3] [µM] | IC50 [4] [µM] | Ki [5] [µM]
NCCCCNCCCCN1CCCCCCCCCCCCCC1 | 1 | 28.2 | 30 | 18.5 | 6.2
NCCCNCCCN1CCCCCCCCCCCCCC1 | 1 | 10 | 10.5 | 3 | 9.9
CCN(CCCCNCCCCN)Cc1c2ccccc2cc2ccccc12.Cl.Cl.Cl | 1 | 21.9 | 22.2 | 22.2 | 24.4
Cl.Cl.Cl.NCCCNCCCNCc1c2ccccc2cc2ccccc12 | 1.8 | 3.4 | 1.9 | 1.8 | 33.4
Cl.Cl.Cl.NCCCCNCCCCNCc1c2ccccc2cc2ccccc12 | 148 | – | 0.45 | – | –
